Results taken from paper PMC9506044, “Identification of Protosappanoside D from Caesalpinia decapetala and Evaluation of Its Pharmacokinetic, Metabolism and Pharmacological Activity” (Molecules, 2022).
“Also recorded” adds a separate entry of the source. Where two headings read alike, the source gives them in different places.

What was measured:
[1] = Metabolites identification in rat plasma (UHPLC/Q Exactive Plus MS); format: in vivo, Sprague-Dawley rats; settings: PTD 27.3 mg/kg by gavage twice daily for 3 d, 2 h after last administration
Protocol: To investigate the PTD metabolites, Sprague-Dawley rats were randomly divided into two groups with six rats in each group. PTD was continuously administered by gavage twice daily for 3 d at a dose of 27.3 mg/kg. Blood was collected from the rat femoral artery 2 h after the last administration, centrifuged at 6000 rpm at 4 °C for 6 min, and 100 μL of plasma was separated and frozen at −20 °C until analysis.
Qualitative analysis of metabolites was conducted on a Vanquish horizon (Thermo Scientific, Waltham, MA, USA) and combined with a Q Exactive Plus Orbitrap MS (QE Plus, Thermo Scientific, USA) system. The separation of PTD and its metabolites was achieved on a Hypersil gold column (2.1 × 150 mm, i.d., 1.9 μm). The mobile phase consisted of water containing 0.1% formic acid (B) and acetonitrile containing 0.1% formic acid (A). The gradient elution program was set as follows: 0–2 min, 5% A; 2–3 min, 5~25% A; 3–6 min, 25~40% A; 6–13 min, 40~95% A; 13–14 min, 95~95% A; 14–15 min, 95~5% A; 15–18 min, 5~5% A; flow rate, 0.3 mL/min. The MS unit parameters were set as follows: the range of data acquisition was 150–1000 m/z, electrospray voltage was 2.5 kV(−), 3.5 kV(+), solvent removal gas flow rate was 8 L/min, and desolvent gas temperature was 320 °C. Acquisition and processing were conducted using the Xcalibur 4.2 software (Thermo Fisher Scientific, USA) and Compound Discoverer 3.2 (Thermo, USA).
A 600 μL aliquot of each plasma sample was transferred into a 5 mL centrifuge tube, 300 μL of 2% formic acid solution and 2.4 mL of methanol was added before vortexing for 2 min. This was followed by sonication in an ultrasonic machine for 10 min, and centrifugation at 13,225× g for 10 min. The supernatant was then placed in a centrifuge tube and evaporated to dryness under a stream of nitrogen at 37 °C. The residues were dissolved in 200 μL of 50% methanol and centrifuged at 13,225× g for 10 min, and 1 μL of the solution was injected into the QE system.

[2] = Stability of the analytes in rat plasma under various storage conditions; format: in vitro ADME
Protocol: The stability of analytes in rat plasma was assessed using QC samples at low, medium and high concentrations (n = 5 for each concentration level) under three conditions: (1) at room temperature for 24 h; (2) refrigerated at 4 °C for 24 h; and (3) three freeze-thaw cycles.

RAW264.7 cells = experiment: MTS cell viability assay on RAW264.7 cells; format: cell-based; settings: 24 h treatment
Protocol: (§1) RAW264.7 cells, obtained from American Type Culture Collection (ATCC, Manassas, VA, USA), were cultured in Dulbecco’s modified Eagle’s medium (DMEM) (Life Technologies, Grand Island, NY, USA) supplemented with 10% fetal bovine serum (FBS) and 1% penicillin-streptomycin (Grand Island, NY, USA). The cultures were incubated at 37 °C in a humidified atmosphere containing 5% CO2.
Cell viability was determined using the MTS cell viability assay kit. RAW264.7 cells were cultured at a density of 1 × 10^5 cells per well in 96-well plates by the treatment with various concentrations of PTD and PTB, respectively. After 24 h, 5 µL MTS was added to each well and incubated for 3 h. The plates were then read at 490 nm using a microplate reader.

[3] = system: LPS-stimulated RAW264.7 cells; experiment: Secretion of TNF-α, IL-1β and IL-6 by LPS-induced RAW264.7 cells (ELISA); format: cell-based; settings: 200 μmol/L, LPS 1 μg/mL, 24 h, compared to the model group
Protocol: as §1
RAW264.7 cells (1 × 10^5 cells/well in a 96-well plate) were treated with PTD, PTB (200 μmol/L) and stimulated by LPS (1 μg/mL) for 24 h. As a positive control, the impacts of Dex on LPS-induced RAW264.7 cells were also determined parallelly. The supernatants were then collected, and the accumulated NO level was determined using Griess reagent. The concentrations of TNF-α, IL-6 and IL-1β in conditioned media were measured using enzyme-linked immunosorbent assay (ELISA) according to the supplier’s instructions.

[4] = Pharmacokinetic study in rats after oral and intravenous administration of PTD (UPLC-MS/MS, plasma); format: in vivo; settings: Sprague-Dawley; for AUC(0-inf) / AUC(0-t) / Cmax / MRT last / MRT inf / half-life / Tmax: rat plasma; for MRT last: read-out: MRT(0–t); for MRT inf: read-out: MRT(0–∞); for half-life: read-out: t1/2z (converted)
Protocol: Specific pathogen-free Sprague-Dawley rats (230 ± 10 g) were purchased from Changsha Tianqin Biotechnology Co., Ltd. (Changsha, China; certificate no. SCXK (Xiang) 2014-0010). Before starting the experiments, the rats were allowed one week of acclimatization in the animal quarters under air conditioning (25 ± 1 °C) and an automatically controlled photoperiod of 12 h of light daily. They were fed with standard rodent chow and tap water ad libitum. Rats were fasted for 12 h before the start of the experiment but were free to drink water. All experiments were approved by the Animal Ethics Committee of Guizhou Medical University and conducted in accordance with the guidelines of the Committee on the Care and Use of Laboratory Animals in China.
For the pharmacokinetic study, 12 rats were randomly divided into two groups, with 6 rats in each group. In the oral administration group, PTD was intragastrically administered to the rats at a dose of 27.3 mg/kg. For intravenous administration, PTD was injected at a dose of 9.1 mg/kg via the tail vein. Blood samples (0.3 mL) were collected directly from the caudal vein using anticoagulant centrifugal tubes at 0.083, 0.167, 0.33, 0.5, 0.75, 1, 1.5, 2, 4, 6, 9, 12 and 24 h after intravenous and oral administration, respectively. The blood sample was centrifuged at 6000 rpm for 6 min, and the supernatant plasma was transferred into a new clean tube and stored at −80 °C prior to further use.
The UPLC-MS/MS system consisted of an ACQUITY I-Class UPLC system and an XEVO TQ-S triple-quadrupole tandem mass spectrometer (Waters Corp., Milford, MA, USA) equipped with an ESI source. Chromatographic separation was performed using a UPLC BEN C18 column (2.1 × 50 mm, […]; Waters Corp., Milford, MA, USA) at 40 °C. The mobile phase consisted of water containing 0.2% formic acid (B) and acetonitrile containing 0.2% formic acid (A) delivered at 0.3 mL/min as a gradient as follows: 0–0.5 min, 10% A; 0.5–3 min, 90% A; 3–4 min, 90% A; 4–4.5 min, 10% A; 4.5–5 min, 10% A. Waters XEVO TQ-S triple-quadrupole mass spectrometer equipped with an ESI source was used for the mass analysis and detection. The main working parameters were set as follows: source temperature, 120 °C; desolvation temperature, 350 °C; and nebuliser gas (N2), 650 L/h. The scan time for all analytes was set at 0.2 s and acquisition and processing were conducted on a Micromass Masslynx4.1.
A 100 μL aliquot of each plasma sample was transferred into a 1.5 mL centrifuge tube, and 50 μL of 2% formic acid solution was added before vortexing for 30 s. Subsequently, the internal standard (IS) (50 μL of 20 ng/mL puerarin) and 400 μL of methanol were added and vortexed for 1 min. For subsequent treatment methods were the same as mentioned in the above section (4.7.1); finally, 1 μL of the solution was injected into the UPLC-MS/MS system.
Compound discoverer 3.2 was used for the analysis of metabolites of PTD; WinNonlin was used for the analysis of pharmacokinetic parameters, and Graphpad 8.2 was used for the illustrations. Data are expressed as mean ± SD. Statistical analysis was performed using the Statistical Product and Service Solutions software package (SPSS 22.0, SPSS Inc., Chicago, IL, USA). The results were analyzed using one-way ANOVA and bioavailability (F) was calculated according to the equation reported in He et al..

[5] = po, intragastric administration of PTD 27.3 mg/kg
[6] = rat, plasma, po, 27.3 mg/kg, intragastric administration of PTD 27.3 mg/kg
[7] = intravenous administration of PTD 9.1 mg/kg

| SMILES | Identification (metabolic pathway from PTD) [1] | concentration with no cytotoxicity to RAW264.7 cells (RAW264.7 cells) | secretion of IL-1β [3] | secretion of IL-6 [3] | secretion of TNF-α [3] | AUC(0-inf) [4, 5] [ng·h/mL] | AUC(0-t) [4, 5] [ng·h/mL] | Cmax [4, 5] [ng/mL] | MRT last [4, 5] [h] | MRT inf [4, 5] [h] | half-life [4, 5] [h] | Tmax [4, 6] [h] | AUC(0-inf) [4, 7] [ng·h/mL] | AUC(0-t) [4, 7] [ng·h/mL] | MRT last [4, 7] [h] | MRT inf [4, 7] [h] | half-life [4, 7] [h] | further results |
| --- | --- | --- | --- | --- | --- | --- | --- | --- | --- | --- | --- | --- | --- | --- | --- | --- | --- | --- |
| COc1ccc2c(c1)OC(CO)=Cc1cc(O)c(O)cc1-2 [M2] | Dealkylation, Dehydration |  |  |  |  |  |  |  |  |  |  |  |  |  |  |  |  |  |
| COC1=CC=C(c2cc(O)c(O)cc2C#CC=O)C(=O)C1 [M3] | Dealkylation, Dehydration, Desaturation |  |  |  |  |  |  |  |  |  |  |  |  |  |  |  |  |  |
| COC1(C(=O)O)COc2cc(O[C@@H]3O[C@H](CO)[C@@H](O)[C@H](O)[C@H]3O)ccc2-c2cc(O)c(O)cc2C1 (stereo partly shown) [M4] | Desaturation, Oxidation, Methylation |  |  |  |  |  |  |  |  |  |  |  |  |  |  |  |  |  |
| OCC1(O)COc2cc(O)ccc2-c2cc(O)c(O)cc2C1 (stereo not shown) [PTB, protosappanin B, reference compound] | desugarization | below 300 μmol/L | significantly reduced; also recorded: significantly downregulated | significantly reduced; also recorded: significantly downregulated | significantly reduced; also recorded: significantly downregulated | 204 ± 43.9 | 179 ± 45 | 31.1 ± 10.5 | 7.41 ± 0.77 | 11.1 ± 2.32 | 7.79 ± 1.59 | 1.42 ± 0.49 | 230 ± 71.9 | 202 ± 59.5 | 6.45 ± 2.15 | 10.5 ± 3.88 | 6.78 ± 2.69 | Measured Concentration (Mean ± SD) ([2]; 4 °C for 24 h, nominal 2.51 ng/mL): 2.32 ± 0.11 ng/mL; Measured Concentration (Mean ± SD) ([2]; 4 °C for 24 h, nominal 20.08 ng/mL): 24.62 ± 1.12 ng/mL; Measured Concentration (Mean ± SD) ([2]; 4 °C for 24 h, nominal 251 ng/mL): 223.94 ± 15.73 ng/mL; Measured Concentration (Mean ± SD) ([2]; Room temperature for 24 h, nominal 2.51 ng/mL): 2.17 ± 0.13 ng/mL; Measured Concentration (Mean ± SD) ([2]; Room temperature for 24 h, nominal 20.08 ng/mL): 21.81 ± 1.46 ng/mL; Measured Concentration (Mean ± SD) ([2]; Room temperature for 24 h, nominal 251 ng/mL): 244.31 ± 8.62 ng/mL; Measured Concentration (Mean ± SD) ([2]; three freeze-thaw cycles, nominal 2.51 ng/mL): 2.68 ± 0.03 ng/mL; Measured Concentration (Mean ± SD) ([2]; three freeze-thaw cycles, nominal 20.08 ng/mL): 19.43 ± 1.08 ng/mL; Measured Concentration (Mean ± SD) ([2]; three freeze-thaw cycles, nominal 251 ng/mL): 259.84 ± 23.13 ng/mL |
| OCC1OC(Oc2ccc3c(c2)OCC(O)(CO)Cc2cc(O)c(O)cc2-3)C(O)C(O)C1O [PTD, protosappanin B-3-O-β-D-glucoside] |  | below 200 μmol/L | downregulate; also recorded: significantly reduced; also recorded: significantly downregulated | downregulate; also recorded: significantly reduced; also recorded: significantly downregulated | downregulate; also recorded: significantly reduced; also recorded: significantly downregulated | 405 ± 224 | 382 ± 211 | 250 ± 176 | 3.06 ± 0.63 | 4.15 ± 1.09 | 3.47 ± 0.78 | ~0.49 | 19700 | 19400 | 1.8 ± 0.5 | 2.4 ± 0.83 | 3.65 ± 1.26 | Measured Concentration (Mean ± SD) ([2]; 4 °C for 24 h, nominal 5.01 ng/mL): 4.96 ± 0.65 ng/mL; Measured Concentration (Mean ± SD) ([2]; 4 °C for 24 h, nominal 250.5 ng/mL): 236.32 ± 13.98 ng/mL; Measured Concentration (Mean ± SD) ([2]; 4 °C for 24 h, nominal 15,030 ng/mL): 15,122.74 ± 959.18 ng/mL; Measured Concentration (Mean ± SD) ([2]; Room temperature for 24 h, nominal 5.01 ng/mL): 5.61 ± 0.32 ng/mL; Measured Concentration (Mean ± SD) ([2]; Room temperature for 24 h, nominal 250.5 ng/mL): 241.97 ± 8.73 ng/mL; Measured Concentration (Mean ± SD) ([2]; Room temperature for 24 h, nominal 15,030 ng/mL): 15,135.44 ± 1324.59 ng/mL; Measured Concentration (Mean ± SD) ([2]; three freeze-thaw cycles, nominal 5.01 ng/mL): 5.23 ± 0.58 ng/mL; Measured Concentration (Mean ± SD) ([2]; three freeze-thaw cycles, nominal 250.5 ng/mL): 260.48 ± 17.36 ng/mL; Measured Concentration (Mean ± SD) ([2]; three freeze-thaw cycles, nominal 15,030 ng/mL): 14,844.73 ± 346.61 ng/mL; bioavailability ([4]; rat, plasma, oral, 27.3 mg/kg, rat, oral 27.3 mg/kg vs intravenous 9.1 mg/kg): 0.65% |
